The values below come from US20090163521A1, “Novel Pyrazolopyrimidinone Derivatives” (ORCHID RESEARCH LABORATORIES LIMITED, priority 2005, published 2009).

As usually defined, the inhibition is the percentage by which the read-out fell short of the control. Lower therefore signals a response near the control.

One assay relates to TNF-α. Briefly: In vitro measurement of TNF-α in LPS-stimulated human PBMC. The assay is classed as cell-based. Particulars: LPS 1 μg/ml, 18 h. The protocol: This assay determines the effect of test compounds on the production of TNF α in human Peripheral Blood Mononuclear Cells (PBMC). Compounds were tested for their ability to inhibit the activity of TNF α in human PBMC. PBMC were isolated from blood (from healthy volunteers) using BD Vacutainer CPT™ (Cell preparation tube, BD Bio Science) and suspended in RPMI medium (Physiol. Res. 52: 593-598, 2003). The test compounds were pre-incubated with PBMC (0.5 million/incubation well) for 15 minutes at 37° C. and then stimulated with Lipopolysaccharide (Escherichia coli: B4; 1 μg/ml) for 18 h at 37° C. in 5% CO2. The levels of TNFα in cell culture medium were estimated using enzyme linked Immunosorbent assay performed in a 96 well format as per the procedure of the manufacturer (Cayman Chemical, Ann Arbor, USA).

For another assay, the system named is Rat Paw Edema model. Briefly: Carrageenan induced paw edema test in rat. The assay is classed as in vivo. Particulars: 5 mg/kg b. wt., p.o.; 3 hours after carrageenan. How it is done:
The carrageenan paw edema test was performed as described by Winter et al (Proc. Soc. Exp. Biol. Med, 111, 544, 1962). Male wistar rats were selected with body weights equivalent within each group. The rats were fasted for eighteen hours with free access to water. The rats were dosed orally with the test compound suspended in vehicle containing 0.25% carboxymethylcellulose and 0.5% Tween 80. The control rats were administered with vehicle alone. After an hour, the rats were injected with 0.1 ml of 1% Carrageenan solution in 0.9% saline into the sub-plantar surface of the right hind paw. Paw volume was measured using digital plethysmograph before and after 3 hours of carrageenan injection. The average of foot swelling in drug treated animals was compared with that of control animals. Anti-inflammatory activity was expressed as the percentage inhibition of edema compared with control group [Arzneim-Forsch/Drug Res., 43 (1), 1, 44-50, 1993; Ottemess and Bliven, Laboratory Models for Testing NSAIDs, In Non-Steroidal Anti-Inflammatory Drugs, (J. Lombardino, ed. 1985)].

Turning to `CSc1ccc(-c2nc3[nH]nc(N)c3c(=O)n2-c2ccc(C)c(C)c2)cc1` [Example 2, 3-amino-5-(3,4-dimethylphenyl)-6-[4-(methylthio)phenyl]-1,5-dihydro-4H-pyrazolo[3,4-d]pyrimidin-4-one], the inhibition at 10 µM in the assay on TNF-α was determined as 53.4%. In addition, the “Rat Paw Edema model % Inhibition” value in the assay with Rat Paw Edema model is 30.52 ± 10.3%.
